Source: patent publication US9326513B2, “Fungicidal compositions” (Syngenta Participations AG, priority 2011, dated 2016)

Columns and labels:
Assay type in all cases: in vivo
Settings in all cases: foliar, compared to untreated control leaf disks, read-out: disease control
[1] = system: Puccinia recondita f. sp. tritici; assay: Puccinia recondita f. sp. tritici / wheat / leaf disc preventative (brown rust)
Source text: Puccinia recondita f. sp. tritici/Wheat/Leaf Disc Preventative (Brown Rust) Wheat leaf segments cv. Kanzler were placed on agar in multiwell plates (24-well format) and sprayed with the formulated test compound diluted in water. The leaf disks were inoculated with a spore suspension of the fungus 1 day after application.

[2] = system: Pyrenophora teres; assay: Pyrenophora teres / barley / leaf disc preventative (net blotch)
Source text: Pyrenophora teres/Barley/Leaf Disc Preventative (Net Blotch) Barley leaf segments cv. Hasso were placed on agar in a multiwell plate (24-well format) and sprayed with the formulated test compound diluted in water. The leaf segments were inoculated with a spore suspension of the fungus 2 days after application.

[3] = system: Puccinia recondita f. sp. tritici; assay: Puccinia recondita f. sp. tritici / wheat / leaf disc curative (brown rust)
Protocol: Puccinia recondita f. sp. tritici/Wheat/Leaf Disc Curative (Brown Rust) Wheat leaf segments cv. Kanzler are placed on agar in multiwell plates (24-well format). The leaf segments are inoculated with a spore suspension of the fungus. Plates were stored in darkness at 19° C. and 75% rh. The formulated test compound diluted in water was applied 1 day after inoculation.

[4] = system: Blumeria graminis f. sp. tritici (Erysiphe graminis f. sp. tritici); assay: Blumeria graminis f. sp. tritici / wheat / leaf disc preventative (powdery mildew on wheat)
Method in brief: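 Preventative leaf-disc test: compound (200 ppm) was sprayed onto cv. Kanzler wheat segments, which were dusted with conidia from infected plants 1 day after application. After incubation at 20° C and 60% rh, disease control relative to untreated segments was rated 6-8 days after application.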

Which pest or weed control at 200 ppm [1] does the source give for `CCc1cc(/N=C/N(C)CC)c(C)nc1O[C@H]1CC[C@H](C(C)C)CC1` [Q.252] here?
Its pest or weed control at 200 ppm is at least 50%.

What about the pest or weed control at 200 ppm [2] of the same compound?
The pest or weed control at 200 ppm was at least 50%.

`CCN(C)/C=N/c1cc(Br)c(OCc2cccc(C(C)C)c2)nc1C` [Q.169] was tested. Which pest or weed control at 200 ppm [1] did it give?
The pest or weed control at 200 ppm was at least 50%.

What about the pest or weed control at 200 ppm [3] of the same compound?
Its pest or weed control at 200 ppm is at least 50%.

And the pest or weed control at 200 ppm [2]?
The pest or weed control at 200 ppm was at least 50%.

`CCN(C)/C=N/c1cc(Br)c(OC(C)c2cccs2)nc1C` (stereo not shown) [Q.237] was tested. Which pest or weed control at 200 ppm [1] did it give?
Its pest or weed control at 200 ppm is at least 50%.

What about the pest or weed control at 200 ppm [2] of the same compound?
The pest or weed control at 200 ppm was at least 50%.

Which pest or weed control at 200 ppm [1] does the source give for `COc1ccccc1COc1ccc(/N=C/N(C)C(C)C)c(C)n1` [Q.366] here?
Its pest or weed control at 200 ppm is at least 50%.

What about the pest or weed control at 200 ppm [3] of the same compound?
The pest or weed control at 200 ppm was at least 50%.

What about the pest or weed control at 200 ppm [2] of the same compound?
Its pest or weed control at 200 ppm is at least 50%.

Which results are given for `COc1cc(COc2ccc(/N=C/N(C)C(C)C)c(C)n2)cc(OC)c1` [Q.377]?
pest or weed control at 200 ppm [1]: ≥ 50%; pest or weed control at 200 ppm [3]: ≥ 50%; pest or weed control at 200 ppm [2]: ≥ 50%

Which pest or weed control at 200 ppm [2] does the source give for `CCN(C)/C=N/c1cc(Br)c(OC(C)c2cc(F)cc(F)c2)nc1C` (stereo not shown) [Q.256] here?
The pest or weed control at 200 ppm was at least 50%.

How did the pest or weed control at 200 ppm [1] turn out when `CCN(C)/C=N/c1cc(Br)c(OCc2cccc(C#Cc3ccccc3)c2)nc1C` [Q.311] was run?
Its pest or weed control at 200 ppm is at least 50%.

And the pest or weed control at 200 ppm [3]?
The pest or weed control at 200 ppm was at least 50%.

What about the pest or weed control at 200 ppm [2] of the same compound?
The pest or weed control at 200 ppm was at least 50%.

How did the pest or weed control at 200 ppm [2] turn out when `CCN(C)/C=N/c1cc(Br)c(OC2CCc3ccc(Br)cc3C2)nc1C` (stereo not shown) [Q.067] was run?
Its pest or weed control at 200 ppm is at least 50%.

For `C=C(C)CC(CC(=C)C)Oc1nc(C)c(/N=C/N(C)CC)cc1Br` [Q.232], which pest or weed control at 200 ppm [1] is on record?
Its pest or weed control at 200 ppm is at least 50%.

What about the pest or weed control at 200 ppm [3] of the same compound?
The pest or weed control at 200 ppm was at least 50%.

What about the pest or weed control at 200 ppm [2] of the same compound?
The pest or weed control at 200 ppm was at least 50%.

What does the source list for `C#Cc1cc(/N=C/N(C)CC)c(C)nc1O[C@H]1CC[C@H](C(C)C)CC1` [Q.253]?
pest or weed control at 200 ppm [1]: ≥ 50%; pest or weed control at 200 ppm [3]: ≥ 50%; pest or weed control at 200 ppm [2]: ≥ 50%

For `CCN(C)/C=N/c1cc(Br)c(OC2CCC(C(C)(C)C)CC2)nc1C` (stereo not shown) [Q.081], which pest or weed control at 200 ppm [1] is on record?
Its pest or weed control at 200 ppm is at least 50%.

And the pest or weed control at 200 ppm [4]?
The pest or weed control at 200 ppm was at least 50%.

And the pest or weed control at 200 ppm [3]?
The pest or weed control at 200 ppm was at least 50%.

`COc1cc(OC)cc(C(C)Oc2ccc(/N=C/N(C)C(C)C)c(C)n2)c1` (stereo not shown) [Q.374] was tested. Which pest or weed control at 200 ppm [1] did it give?
Its pest or weed control at 200 ppm is at least 50%.

And the pest or weed control at 200 ppm [4]?
Its pest or weed control at 200 ppm is at least 50%.

And the pest or weed control at 200 ppm [3]?
Its pest or weed control at 200 ppm is at least 50%.

`CCOC(=O)COc1nc(C)c(/N=C/N(C)CC)cc1C` [Q.065] was tested. Which pest or weed control at 200 ppm [1] did it give?
Its pest or weed control at 200 ppm is at least 50%.

And the pest or weed control at 200 ppm [4]?
Its pest or weed control at 200 ppm is at least 50%.

And the pest or weed control at 200 ppm [3]?
The pest or weed control at 200 ppm was at least 50%.

`CCN(C)/C=N/c1cc(-c2ccccc2)c(OC(C)c2cc(F)cc(F)c2)nc1C` (stereo not shown) [Q.263] was tested. Which pest or weed control at 200 ppm [1] did it give?
The pest or weed control at 200 ppm was at least 50%.

What about the pest or weed control at 200 ppm [4] of the same compound?
Its pest or weed control at 200 ppm is at least 50%.

And the pest or weed control at 200 ppm [3]?
The pest or weed control at 200 ppm was at least 50%.

For `CCN(C)/C=N/c1cc(Br)c(OCCCC=C(C)C)nc1C` [Q.118], which pest or weed control at 200 ppm [1] is on record?
The pest or weed control at 200 ppm was at least 50%.

And the pest or weed control at 200 ppm [4]?
The pest or weed control at 200 ppm was at least 50%.

What about the pest or weed control at 200 ppm [3] of the same compound?
The pest or weed control at 200 ppm was at least 50%.

`CCN(C)/C=N/c1cc(Br)c(OC2CCCc3ccc(Br)cc32)nc1C` (stereo not shown) [Q.126] was tested. Which pest or weed control at 200 ppm [1] did it give?
The pest or weed control at 200 ppm was at least 50%.

And the pest or weed control at 200 ppm [4]?
Its pest or weed control at 200 ppm is at least 50%.

What about the pest or weed control at 200 ppm [3] of the same compound?
The pest or weed control at 200 ppm was at least 50%.

`CCN(C)/C=N/c1cc(Br)c(OC(C)c2ccc(C)cc2)nc1C` (stereo not shown) [Q.112] was tested. Which pest or weed control at 200 ppm [1] did it give?
Its pest or weed control at 200 ppm is at least 50%.

And the pest or weed control at 200 ppm [4]?
The pest or weed control at 200 ppm was at least 50%.

And the pest or weed control at 200 ppm [3]?
Its pest or weed control at 200 ppm is at least 50%.

What does the source list for `CCN(C)/C=N/c1cc(Br)c(O[C@H]2CC[C@H](c3ccccc3)CC2)nc1C` [Q.270]?
pest or weed control at 200 ppm [1]: ≥ 50%; pest or weed control at 200 ppm [4]: ≥ 50%; pest or weed control at 200 ppm [3]: ≥ 50%

With `CCN(C)/C=N/c1cc(I)c(O[C@H]2CC[C@H](C(C)C)CC2)nc1C` [Q.179] as the compound, how does the pest or weed control at 200 ppm [1] read?
The pest or weed control at 200 ppm was at least 50%.

What about the pest or weed control at 200 ppm [4] of the same compound?
The pest or weed control at 200 ppm was at least 50%.

What about the pest or weed control at 200 ppm [3] of the same compound?
Its pest or weed control at 200 ppm is at least 50%.

Which pest or weed control at 200 ppm [2] does the source give for `CCN(C)/C=N/c1cc(Br)c(OCCCC=C(C)C)nc1C` [Q.079] here?
The pest or weed control at 200 ppm was at least 50%.

Which pest or weed control at 200 ppm [1] does the source give for `Cc1nc(OC(C)c2cc(F)cc(F)c2)c(Br)cc1/N=C/N(C)C(C)C` (stereo not shown) [Q.188] here?
Its pest or weed control at 200 ppm is at least 50%.

And the pest or weed control at 200 ppm [4]?
The pest or weed control at 200 ppm was at least 50%.

And the pest or weed control at 200 ppm [3]?
The pest or weed control at 200 ppm was at least 50%.

Which pest or weed control at 200 ppm [1] does the source give for `CCN(C)/C=N/c1cc(Br)c(OC2CCc3c(OC)cccc32)nc1C` (stereo not shown) [Q.050] here?
The pest or weed control at 200 ppm was at least 50%.

And the pest or weed control at 200 ppm [4]?
Its pest or weed control at 200 ppm is at least 50%.

What about the pest or weed control at 200 ppm [3] of the same compound?
Its pest or weed control at 200 ppm is at least 50%.

`CCN(C)/C=N/c1cc(Br)c(OC2CCCc3ccc(F)cc32)nc1C` (stereo not shown) [Q.048] was tested. Which pest or weed control at 200 ppm [1] did it give?
The pest or weed control at 200 ppm was at least 50%.

What about the pest or weed control at 200 ppm [4] of the same compound?
Its pest or weed control at 200 ppm is at least 50%.

And the pest or weed control at 200 ppm [3]?
Its pest or weed control at 200 ppm is at least 50%.
